Experimental data as given in patent US20250120932A1, “PHARMACEUTICAL COMPOSITION” (NEUROPRO THERAPEUTICS, INC., priority 2021, published 2025).
Each block holds one compound with its values, some of them ahead of it.

How the values were obtained:
Caco-2 cells = assay: in vitro
Procedure: (§1) Caco-2 cells purchased from ATCC were seeded onto […] (PET) in 96-well Corning Insert plates at 1×10^5 cells/cm^2, and refreshed medium every 4˜5 days until to the 21st to 28th day for confluent cell monolayer formation.
(§2) The transport buffer in the study was HBSS with 10.0 mM HEPES at pH 7.40±0.05. Test compound was tested at 2.00 μM bi-directionally in duplicate. Digoxin was tested at 10.0 μM bi-directionally in duplicate, while nadolol and metoprolol were tested at 2.00 μM in A to B direction in duplicate. Final DMSO concentration was adjusted to less than 1%. The plate was incubated for 2 hours in CO2 incubator at 37±1° C., with 5% CO2 at saturated humidity without shaking. And all samples after mixed with acetonitrile containing internal standard were centrifuged at 3200×g for 10 min. For nadolol and metoprolol, 200 μL supernatant solution was diluted with 600 μL ultra-pure water for LC-MS/MS analysis. For digoxin and test compounds, 200 μL supernatant solution was diluted with 200 μL ultra-pure water for LC-MS/MS analysis. Concentrations of test and control compounds in starting solution, donor solution, and receiver solution were quantified by LC-MS/MS methodologies, using peak area ratio of analyte/internal standard. After transport assay, lucifer yellow rejection assay was applied to determine the Caco-2 cell monolayer integrity.
(§3) The apparent permeability coefficient Papp (cm/s) was calculated using the equation: […]
(§4) Where dCp/dt is the cumulative concentration of compound in the receiver chamber as a function of time (μM/s); Vr is the solution volume in the receiver chamber (0.075 mL on the apical side, 0.25 mL on the basolateral side); A is the surface area for the transport, i.e. 0.0804 cm^2 for the area of the monolayer; Co is the initial concentration in the donor chamber (μM). The efflux ratio was calculated using the equation: […]
(§5) Percent recovery was calculated using the equation: […]
(§6) Where Vd is the volume in the donor chambers (0.075 mL on the apical side, 0.25 mL on the basolateral side); Ca and Cr are the final concentrations of transport compound in donor and receiver chambers, respectively.

in vitro = settings: human; for recovery at 2 h: Caco-2, pH 7.4, Mean % Solution Recovery A to B
Procedure: as §1, §2, §3, §4, §5, §6

[1] = LogP (octanol:water partition coefficient)
Source text: Crucial to the efficacy of any treatment by a pharmaceutical composition is the overall systemic bioavailability of the pharmaceutical composition used for said treatment. […] LogP is one measure of lipophyilicity, and is the octal:water partition coefficient expressed as a log ratio of molecule in octanol relative to water after mixing.

[2] = Oral SEDDS-formulated versus unformulated Bumetanide amides in rats, blood concentration; format: in vivo; settings: male rats
Procedure: SEDDS-formulated and unformulated Bumetanide Morpholinoamide and Bumetanide Diethylamide were orally administered to rats. The experiment was conducted as described previously in regards to Bumetanide Dibenzylamide. Three male and three female rats at each time point for each of the SEDDS and non-SEDDS treatments were used. […] As this appeared to be experimental error, all female rats were removed from the data.

[3] = Pharmacokinetic study in cynomolgus monkeys after oral (nasogastric) gavage, sublingual and intravenous administration; format: in vivo; settings: monkeys, after SL dosing of Bumetanide Dibenzylamide
Procedure: A pharmacokinetic study was done in cynomolgus monkeys following single oral (nasogastric) gavage, sublingual, and intravenous administration. […] Calibration curves, blanks, and analytical QCs were prepared in monkey plasma (K2EDTA). The extracts were evaporated to dryness, reconstituted, and then analyzed by LC-MS/MS. The calibration range was 0.250-250 ng/mL for both analytes.
If the criteria for either the calibration curve or the analytical QCs were not met, the analytical run was rejected. […] No deviations were found during the bioanalytical phase of the study conducted by Origin. Calibration curves were derived from the individual analyte to internal standard peak area ratios using the least squared regression of the ratio versus the nominal concentration of the calibration standard, prepared in duplicate. The regression was then used to back-calculate the concentration of each calibration standard, QC sample and study sample. […] Analyst® Software Version 1.6.3 (Applied Biosystems-MDS Sciex), operated with Windows® (Microsoft), was used for instrument control, data acquisition, and peak integrations. Peak area ratios, standard curve regressions, and sample concentration/accuracy values were calculated with Analyst® Software Version 1.6.3. Other results (e.g., mean statistics) were calculated with Excel® (Microsoft).
There was no apparent sex difference for the second formulation. […] A fourth formulation comprising the composition B listed in Table 54 was also administered in monheys.

[4] = Oral delivery of unformulated Bumetanide Dibenzylamide in Beagle dogs, pharmacokinetics and bioavailability; format: in vivo; settings: oral non-formulated Bumetanide Dibenzylamide
[5] = Caco-2, pH 7.4, Mean Papp (10^−6 cm/s) A to B
[6] = human, Caco-2, 2 h, 10 μM, pH 7.4

- Mean % Solution Recovery A to B (Caco-2 cells; human, Caco-2, 2 h, pH 7.4): 95.7%
- recovery at 2 h (in vitro): 94.7%
- Papp A→B at 2 h (in vitro; [5]): 19.2 ×10⁻⁶ cm/s
- Papp A→B at 2 h (in vitro; Caco-2, pH 7.4, Rank Papp): > 2.5 ×10⁻⁶ cm/s
Compound: COCCc1ccc(OCC(O)CNC(C)C)cc1 (stereo not drawn) [metoprolol, reference compound]

- Mean % Solution Recovery A to B (Caco-2 cells; human, Caco-2, 2 h, pH 7.4): 98.5%
- recovery at 2 h (in vitro): 97%
- Papp A→B at 2 h (in vitro; [5]): 0.0983 ×10⁻⁶ cm/s
- Papp A→B at 2 h (in vitro; Caco-2, pH 7.4, Rank Papp): < 0.5 ×10⁻⁶ cm/s
Compound: CC(C)(C)NCC(O)COc1cccc2c1CC(O)C(O)C2 (stereo not drawn) [nadolol, reference compound]

- Rank Efflux Transporter Substrate (Caco-2 cells; Caco-2): Likely
- Efflux Ratio (Caco-2 cells; [6]): 800
- Mean % Solution Recovery B to A (Caco-2 cells; [6]): 103.4%
- Mean % Solution Recovery A to B (Caco-2 cells; human, Caco-2, 2 h, pH 7.4): 97.4%
- efflux ratio at 2 h, 10 μM (in vitro; Caco-2, pH 7.4, Efflux Ratio): 586
- recovery at 2 h (in vitro): 94.7%
- recovery at 2 h, 10 μM (in vitro; Caco-2, pH 7.4, Mean % Solution Recovery B to A): 108%
- Papp A→B at 2 h (in vitro; [5]): 0.0223 ×10⁻⁶ cm/s
- Papp B→A at 2 h, 10 μM (in vitro; Caco-2, pH 7.4, Mean Papp (10^−6 cm/s) B to A): 13.1 ×10⁻⁶ cm/s
- Papp A→B at 2 h (in vitro; Caco-2, pH 7.4, Rank Papp): < 0.5 ×10⁻⁶ cm/s
Compound: C[C@H]1O[C@@H](O[C@H]2[C@@H](O)C[C@H](O[C@H]3[C@@H](O)C[C@H](O[C@H]4CC[C@@]5(C)[C@H](CC[C@@H]6[C@@H]5C[C@@H](O)[C@]5(C)[C@@H](C7=CC(=O)OC7)CC[C@]65O)C4)O[C@@H]3C)O[C@@H]2C)C[C@H](O)[C@@H]1O [Digoxin, reference compound]

- plasma concentrations of Bumetanide [3]: no measurable concentrations
- logP [1]: ~2.61
- Bumetanide levels [4]: not measureable
Compound: CCCCNc1cc(C(=O)O)cc(S(N)(=O)=O)c1Oc1ccccc1 [Bumetanide, reference compound]

The next lines start with the compound.

Compound: CCCCNc1cc(C(=O)N(CC)CC)cc(S(N)(=O)=O)c1Oc1ccccc1 [Bumetanide Diethylamide]
- logP ([1]; octanol:water partition coefficient): 3.11
- Mean % Solution Recovery A to B (Caco-2 cells; Caco-2, A to B, second Table 73 (diethylamide run)): 77.4%
- Mean Papp (10^−6 cm/s) A to B (Caco-2 cells; Caco-2, A to B, test compound 2.00 μM (digoxin 10.0 μM), 2 hours, HBSS pH 7.40, second Table 73 (diethylamide run)): 1.33 10^−6 cm/s
- Efflux Ratio (Caco-2 cells; Caco-2, B to A / A to B, second Table 73 (diethylamide run)): 31.6
- Mean % Solution Recovery B to A (Caco-2 cells; Caco-2, B to A, second Table 73 (diethylamide run)): 88.5%
- Mean Papp (10^−6 cm/s) B to A (Caco-2 cells; Caco-2, B to A, test compound 2.00 μM (digoxin 10.0 μM), 2 hours, HBSS pH 7.40, second Table 73 (diethylamide run)): 42.0 10^−6 cm/s
- Rank Efflux Transporter Substrate (Caco-2 cells; Caco-2 efflux ratio rank, second Table 73 (diethylamide run)): Likely
- Rank Papp (Caco-2 cells; Caco-2 permeability rank, second Table 73 (diethylamide run)): Moderate (Moderate permeability: 0.500<Papp<2.50 (×10^−6 cm/s))

Compound: CCCCNc1cc(C(=O)N2CCOCC2)cc(S(N)(=O)=O)c1Oc1ccccc1 [Bumetanide morpholinoamide unformulated]
- Efflux Ratio (Caco-2 cells; Caco-2): 43.8
- Mean % Solution Recovery A to B (Caco-2 cells; Caco-2): 87.4%
- Mean % Solution Recovery B to A (Caco-2 cells; Caco-2): 99.6%
- Rank Efflux Transporter Substrate (Caco-2 cells; Caco-2): Likely
- Mean Papp (10^−6 cm/s) A to B (Caco-2 cells; Caco-2, pH 7.4): 0.709 10^−6 cm/s
- Mean Papp (10^−6 cm/s) B to A (Caco-2 cells; Caco-2, pH 7.4): 31.0 10^−6 cm/s

Compound: CCCCNc1cc(C(=O)N2CCOCC2)cc(S(N)(=O)=O)c1Oc1ccccc1 [Bumetanide Morpholinoamide]
- blood concentration by 24 hrs [2]: no detectable concentration

Compound: CCCCNc1cc(C(=O)N(Cc2ccccc2)Cc2ccccc2)cc(S(N)(=O)=O)c1Oc1ccccc1 [Bumetanide Dibenzylamide unformulated]
- Efflux Ratio (Caco-2 cells; Caco-2): >0.825
- Mean % Solution Recovery A to B (Caco-2 cells; Caco-2): <4.9%
- Mean % Solution Recovery B to A (Caco-2 cells; Caco-2): 25.4%
- Rank Efflux Transporter Substrate (Caco-2 cells; Caco-2): Poor or non-
- Mean Papp (10^−6 cm/s) A to B (Caco-2 cells; Caco-2, pH 7.4): <0.480 10^−6 cm/s
- Mean Papp (10^−6 cm/s) B to A (Caco-2 cells; Caco-2, pH 7.4): 0.396 10^−6 cm/s
